Data taken from patent publication US20120028931A1, “HETEROCYCLIC M-GLU5 ANTAGONISTS” (RECORDATI IRELAND LIMITED, priority 2009, published 2012).

How the values were obtained:
mGlu5 receptor = target: T1, mGlu5 receptor (Rattus norvegicus, UniProt P31424); test: Radioligand binding assay at metabotropic glutamate receptor 5 in rat brain ([3H]MPEP); settings: rat forebrain membranes, 4 nM [3H]MPEP; Ki from IC50 by Cheng & Prusoff; read-out: affinity (Ki) for mGlu5 receptor
T1 construct: from tissue; host or cells: forebrain (cortex, striatum and hippocampus) membranes of male Sprague Dawley rats
Procedure: Radioligand Binding Assay at metabotropic glutamate receptor 5 in rat brain.
a) Membrane preparation: male Sprague Dawley rats (200-300 g, Charles River, Italy) were killed by cervical dislocation and the forebrain (cortex, striatum and hippocampus) was homogenized (2×20 sec) in 50 vols of cold 50 mM Tris buffer pH 7.4, using a Politron homogenizer (Kinematica). Homogenates were centrifuged at 48000×g for 15 min, resuspended in 50 vols of the same buffer, incubated at 37° C. for 15 min and centrifuged and resuspended two more times. The final pellets were frozen and stored at −80° C. until use.
b) Binding assay: pellets from rat forebrain were resuspended in 100 vols of 20 mM HEPES, 2 mM MgCl2, 2 mM CaCl2, pH 7.4. The membranes were incubated in a final volume of 1 ml for 60 min at 25° C. with 4 nM [^3H]MPEP in the absence or presence of competing drugs. Non-specific binding was determined in the presence of 10 μM MPEP (Spooren W. et al. Trends Pharmacol Sci. 22, 331-337, 2001). The incubation was stopped by the addition of cold Tris buffer pH 7.4 and rapid filtration through 0.5% polyethyleneimine pretreated Filtermat 1204-401 (Wallac) filters. The filters were then washed with cold buffer and the radioactivity retained on the filters was counted by liquid scintillation spectrometry. […]

conscious rats = test: Cystometry in conscious rats; type: in vivo, rat; settings: administered orally
Procedure: Male Sprague-Dawley rats [Crl: CD® (SD) IGS BR] of 300-400 g b.w. supplied by Charles River Italia were used. The animals were housed with free access to food and water and maintained on a forced 12-hour-light/12-hour-dark cycle at 22-24° C. of temperature, except during the experiment. To quantify urodynamic parameters in conscious rats, cystometrographic studies were performed according to the procedure previously reported (Guarneri et al., Pharmacol. Res. 24: 175, 1991).
Briefly, the rats were anaesthetised by intraperitoneal administration of 3 ml/kg of Equithensin solution (pentobarbital 30 mg/kg and chloral hydrate 125 mg/kg) and placed in a supine position. […]
On the day of the experiment, the rats were placed in modified Bollman cages, i.e., restraining cages that were large enough to permit the rats to adopt a normal crouched posture, but narrow enough to prevent turning around. […] The intraluminal-pressure signal during infusion of saline into the bladder (cystometrogram) was continuously recorded on a polygraph (Rectigraph-8K San-ei with BM614/2 amplifier from Biomedica Mangoni) or stored on PC by data acquisition system (PowerLab, Chart 4 software, AD Instruments). From the cystometrogram, bladder volume capacity (BVC) was evaluated. […] Basal BVC value was evaluated as the mean of the values observed in the cystometrograms recorded in an initial period of 30-60 minutes. […]

T1 sequence (P31424 21-1203): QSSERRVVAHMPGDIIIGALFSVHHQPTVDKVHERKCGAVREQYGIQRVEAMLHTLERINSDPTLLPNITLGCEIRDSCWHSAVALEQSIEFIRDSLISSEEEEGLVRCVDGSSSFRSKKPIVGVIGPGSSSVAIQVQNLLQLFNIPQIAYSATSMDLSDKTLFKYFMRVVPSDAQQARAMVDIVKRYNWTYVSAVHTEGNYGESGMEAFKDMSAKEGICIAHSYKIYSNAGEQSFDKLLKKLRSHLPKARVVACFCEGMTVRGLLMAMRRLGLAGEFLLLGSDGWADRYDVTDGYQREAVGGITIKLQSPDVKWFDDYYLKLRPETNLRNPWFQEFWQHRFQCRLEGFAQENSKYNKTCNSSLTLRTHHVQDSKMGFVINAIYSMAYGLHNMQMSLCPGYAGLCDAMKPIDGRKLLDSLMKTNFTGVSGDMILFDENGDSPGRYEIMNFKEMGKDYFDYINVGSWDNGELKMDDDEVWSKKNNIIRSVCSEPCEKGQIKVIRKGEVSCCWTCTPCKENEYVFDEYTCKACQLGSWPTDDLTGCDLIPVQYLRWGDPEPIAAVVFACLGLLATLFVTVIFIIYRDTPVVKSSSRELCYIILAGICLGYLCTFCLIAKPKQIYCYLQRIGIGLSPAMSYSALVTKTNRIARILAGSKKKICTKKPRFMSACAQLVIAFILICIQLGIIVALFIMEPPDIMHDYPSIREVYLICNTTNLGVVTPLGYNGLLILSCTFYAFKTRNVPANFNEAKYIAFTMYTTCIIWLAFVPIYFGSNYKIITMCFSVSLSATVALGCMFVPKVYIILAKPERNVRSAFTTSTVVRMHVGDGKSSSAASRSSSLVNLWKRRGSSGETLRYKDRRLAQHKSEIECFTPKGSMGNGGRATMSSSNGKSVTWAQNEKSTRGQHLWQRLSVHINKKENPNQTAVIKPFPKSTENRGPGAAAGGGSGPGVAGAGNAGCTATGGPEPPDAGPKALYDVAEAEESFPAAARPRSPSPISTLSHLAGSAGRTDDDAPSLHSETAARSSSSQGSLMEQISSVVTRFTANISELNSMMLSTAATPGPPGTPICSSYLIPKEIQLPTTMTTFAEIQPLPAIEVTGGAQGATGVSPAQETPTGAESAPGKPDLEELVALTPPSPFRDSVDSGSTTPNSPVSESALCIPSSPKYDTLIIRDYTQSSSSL

Structure (SMILES)	Ki (mGlu5 receptor) [nM]	effect on bladder volume capacity (BVC) (conscious rats)
Cc1ccc([N+](=O)[O-])c(N2CCC(=Cc3cc(-c4ccco4)n(C)n3)CC2)n1 [Example 1, 1-(6-methyl-3-nitro-2-pyridyl)-4-{[5-(2-furyl)-1-methyl-1H-pyrazol-3-yl]-methylene}-piperidine]	0.37	–
Cc1ccc([N+](=O)[O-])c(N2CCC(=Cc3noc(-c4cccs4)n3)CC2)n1 [Example 29, 1-(6-methyl-3-nitro-2-pyridyl)-4-{[5-(2-thienyl)-1,2,4-oxadiazol-3-yl]-methylene}-piperidine]	–	effective in increasing the bladder volume capacity
